In assay [1] the target is T1, human recombinant adrenergic β3 receptor (Homo sapiens, UniProt P13945).
T1 construct: host or cells: CHO-K1
The experiment in a line: Cyclic AMP accumulation assay (HTRF), agonist mode. To be noted: agonistic activity at β3-adrenoceptor, CHO-K1 β3 cells, cAMP. It is filed as cell-based. The procedure:
(Cyclic Amp Accumulation Assay)
Functional response of cells (agonistic or antagonistic) to the test compounds was tested by measurement of cyclic AMP formation. Therefore cyclic AMP was quantitatively determined by HTRF® (Homogeneous Time-Resolved Fluorescence) technology (Cisbio International) using a stable cell line CHO-K1 β3 expressing the human recombinant adrenergic β3 receptor (Euroscreen).
The CHO-K1 β3 cell line was maintained in Ham's F12 medium containing 10% fetal bovine serum, 400 μg/ml geneticin (G418), 100 U/mL penicillin and 100 μg/mL streptomycin (all PAA) at 37° C. and 5% CO2. Cells in mid-log phase, grown in media without antibiotics during 18 h prior to the experiment, were detached by gentle flushing with 2 ml PBS-EDTA pH 7.5 (Cambrex) and resuspended in 8 mL of medium without antibiotics. Cells were then counted, centrifuged in a 30 mL PP tube (Corning) at 2000 rpm for 1 min and resuspended in HBSS/20 mM HEPES/0.05% BSA buffer (all PAA) including 1 mM IBMX (Sigma). Cells were then dispensed at 3.2×10^5−3.6×10^5 cells/well in black 96-half well microtiter plates (Corning). After addition of the test compounds for dose response curves the plates were incubated for 10 min at room temperature.
cAMP HTRF® Kit reagents were then added as recommended by the manufacturer and plates were sealed with plate sealer. After 1 hour of incubation the plates were read in a Tecan Ultra Reader using the “multilabeling” option of Tecan Xfluor4 software with the following parameters, excitation filter 320 nm, mirror dichroic2, lag time 150 μs, integration time 500 μs, number of flashes 10, optimal gain and z-position. For measurement 1 an emission filter at 620 nm and for measurement 2 an emission filter at 665 nm was chosen.
EC50 value calculation for the agonist assay and IC50 value calculation for the antagonist assay, respectively, were performed with the MS Excel Solver function based on a four-parameter fit.

In assay [2] the test system is β3 over β1- and β2-adrenoceptors. Description: Overall selectivity A×B from radioligand binding (β1, β2, β3) and functional β3 assay. Details: species or system human. Conditions: A=Ki(β1)/Ki(β3); B=Ki(β2)/EC50(β3); overall = A multiplied by B. The procedure:
Selectivity for β3 over the other two adrenoceptors was thus defined as:
A) selectivity factor for β3 over β1=Ki(β1)/Ki(β3);
B) selectivity factor for β3 over β2=Ki(β2)/EC50(β3);
overall selectivity was determined as factor A) multiplied by factor B)
Membrane preparations containing human β1-, β2- or β3-adrenergic receptors were purchased from Euroscreen.
Determination of IC50 deployed a competition binding experiment where an unlabeled test compound competes with the radioligand for the receptor's binding site.
For competition binding experiments 0.1 μg/μL β3 membranes were pre-incubated with the respective compounds at r.t. for 10 minutes. The binding buffer consisted of 25 mM Hepes, 1 mM EDTA, 0.5% BSA pH 7.4. All incubation steps were done in a 96 well Masterblock PP/1 mL (Greiner), the total assay volume was 100 μL.
The reaction mixtures were transferred to a 96 well UnifilterGF/B filter plate (Millipore), pre-soaked in 0.5% BSA, using the PerkinElmer filtermate. Each well was washed with 8×1 mL ice cold binding buffer supplemented with 0.5M NaCl. The GF/B filter plates were dried for 5 min on the filtermate. To each well, 50 μL OptiPhase scintillation cocktail (PerkinElmer) was added and incubated at r.t. for 10 min.
Bound radioactivity was quantified in a Wallac-Microbeta plate reader (PerkinElmer). Each well was counted for 2 min in top-count mode.
For competition binding experiments 0.25 μg/well β1 or 0.5 μg/well β2 membranes were pre-incubated with the respective compounds at r.t. for 10 minutes. […] All incubation steps were done in a 96 well Masterblock PP/1 mL (Greiner), the total assay volume was 250 μL.
The reaction mixtures were transferred to a 96 well UnifilterGF/B filter plate (Millipore), pre-soaked in 0.5% PEI, using the PerkinElmer filtermate, Each well was wash with 8×1 mL ice cold binding buffer. The GF/B filter plates were dried for 5 min on the filtermate. To each well 50 μL OptiPhase scintillation cocktail (PerkinElmer) was added and incubated at r.t. for 10 min.
Bound radioactivity was quantified in a Wallac-Microbeta plate reader (PerkinElmer). Each well was counted for 2 min in top-count mode

T1 sequence (P13945 whole entry): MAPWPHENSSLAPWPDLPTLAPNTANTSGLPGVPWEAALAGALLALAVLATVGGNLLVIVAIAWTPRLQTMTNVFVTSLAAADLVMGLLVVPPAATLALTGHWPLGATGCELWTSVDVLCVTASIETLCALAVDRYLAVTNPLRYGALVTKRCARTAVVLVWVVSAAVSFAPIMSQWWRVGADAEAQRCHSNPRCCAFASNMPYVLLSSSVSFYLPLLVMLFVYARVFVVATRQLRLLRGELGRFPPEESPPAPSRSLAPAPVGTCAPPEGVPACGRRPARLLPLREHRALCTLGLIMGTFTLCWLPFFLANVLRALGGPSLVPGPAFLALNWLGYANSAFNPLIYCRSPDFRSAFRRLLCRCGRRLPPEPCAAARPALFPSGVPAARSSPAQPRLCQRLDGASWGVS

Take `COC(=O)c1ccc(O)cc1OCC(O)CNC1CCN(c2ncnc3scc(-c4ccccc4)c23)CC1` (stereo not drawn) [Example 34, methyl 4-hydroxy-2-(2-hydroxy-3-(1-(5-phenylthieno[2,3-d]pyrimidin-4-yl)piperidin-4-ylamino)propoxy)benzoate]: the half-maximal effective concentration (EC50) in assay [1] was over 100 nM. For the same compound, in assay [2], the “selectivity [A x B]” value was 0 (A×B<10).
Regarding `COC(=O)c1ccc(OCC(O)CNC2CCN(c3ncnc4scc(-c5ccccc5)c34)CC2)cc1O` (stereo not drawn) [Example 28, methyl 2-hydroxy-4-(2-hydroxy-3-(1-(5-phenylthieno[2,3-d]pyrimidin-4-yl)piperidin-4-ylamino)propoxy)benzoate], the EC50 in assay [1] is over 100 nM. For the same compound, the “selectivity [A x B]” value in assay [2] is recorded as 0 (A×B<10).
`Cc1c(-c2ccccc2)sc2ncnc(N3CCC(N(C)CC(O)COc4cccc(CO)c4)CC3)c12` (stereo not drawn) [Example 42, 1-(3-(hydroxymethyl)phenoxy)-3-(methyl(1-(5-methyl-6-phenylthieno[2,3-d]pyrimidin-4-yl)piperidin-4-yl)amino)propan-2-ol]: the EC50 in assay [1] is over 100 nM. Also, the “selectivity [A x B]” value in assay [2] is on record as 0 (A×B<10).
`CCOC(=O)c1cc(OCC(O)CNC2CCN(c3ncnc4ccsc34)CC2)ccc1O` (stereo not drawn) [Example 22, ethyl 2-hydroxy-5-(2-hydroxy-3-(1-(thieno[3,2-d]pyrimidin-4-yl)piperidin-4-ylamino)propoxy)benzoate]: in assay [1], the EC50 is over 100 nM. Moreover, in assay [2], the “selectivity [A x B]” value is on record as 0 (A×B<10).
As for `OCc1ccc(OCC(O)CNC2CCN(c3ncnc4scc(-c5ccc(F)cc5)c34)CC2)cc1` (stereo not drawn) [Example 44, 1-(1-(5-(4-fluorophenyl)thieno[2,3-d]pyrimidin-4-yl)piperidin-4-ylamino)-3-(4-(hydroxymethyl)phenoxy)propan-2-ol], in assay [1], the EC50 is over 100 nM. Also, the “selectivity [A x B]” value in assay [2] is recorded as “+ (A×B=10-100)”.
Taken in the same sequence, the figures for `CCOC(=O)c1cc(OCC(O)CNC2CCN(c3ncnc4sc(-c5ccccc5)c(C)c34)CC2)ccc1O` (stereo not drawn) [Example 20, ethyl 2-hydroxy-5-(2-hydroxy-3-(1-(5-methyl-6-phenylthieno[2,3-d]pyrimidin-4-yl)piperidin-4-ylamino)propoxy)benzoate] were over 100 nM and 0 (A×B<10).
In the same order, the values of `Cc1nc(N2CCC(NCC(O)COc3ccc(O)cc3)CC2)c2ccsc2n1` (stereo not drawn) [Example 5, 4-(2-hydroxy-3-(1-(2-methylthieno[2,3-d]pyrimidin-4-yl)piperidin-4-ylamino)propoxy)phenol] are 11 to 100 nM and “++ (A×B=101-1000)”.
Take `CCOC(=O)c1cc(O)ccc1OCC(O)CNC1CCN(c2ncnc3scc(-c4ccccc4)c23)CC1` (stereo not drawn) [Example 32, ethyl 5-hydroxy-2-(2-hydroxy-3-(1-(5-phenylthieno[2,3-d]pyrimidin-4-yl)piperidin-4-ylamino)propoxy)benzoate]: the half-maximal effective concentration (EC50) in assay [1] lay in the range of 1 to 10 nM. Moreover, the “selectivity [A x B]” value in assay [2] is given as “+ (A×B=10-100)”.
Consider `OCc1cccc(OCC(O)CNC2CCN(c3ncnc4scc(-c5ccc(F)cc5)c34)CC2)c1` (stereo not drawn) [Example 40, 1-(1-(5-(4-fluorophenyl)thieno[2,3-d]pyrimidin-4-yl)piperidin-4-ylamino)-3-(3-(hydroxymethyl)phenoxy)propan-2-ol], for which the concentration for a half-maximal effect (EC50) in assay [1] was in the range of 11 to 100 nM. Further, in assay [2], the “selectivity [A x B]” value is given as “+ (A×B=10-100)”.
`CCOC(=O)c1cc(OCC(O)CNC2CCN(c3ncnc4scc(-c5ccccc5)c34)CC2)ccc1O` (stereo not drawn) [Example 12]: the EC50 in assay [1] was over 100 nM. For the same compound, in assay [2], the “selectivity [A x B]” value was 0 (A×B<10).
For the compound `CN(CC(O)COc1cccc(CO)c1)C1CCN(c2ncnc3scc(-c4ccccc4)c23)CC1` (stereo not drawn) [Example 41, 1-(3-(hydroxymethyl)phenoxy)-3-(methyl(1-(5-phenylthieno[2,3-d]pyrimidin-4-yl)piperidin-4-yl)amino)propan-2-ol], in assay [1], the EC50 was over 100 nM. For the same compound, the “selectivity [A x B]” value in assay [2] is “+ (A×B=10-100)”.
Taken in the same sequence, the figures for `Cc1c(-c2ccccc2)sc2ncnc(N3CCC(NCC(O)COc4cccc(CO)c4)CC3)c12` (stereo not drawn) [Example 39, 1-(3-(hydroxymethyl)phenoxy)-3-(1-(5-methyl-6-phenylthieno[2,3-d]pyrimidin-4-yl)piperidin-4-ylamino)propan-2-ol] were over 100 nM and 0 (A×B<10).
As for `CCOC(=O)c1cc(OCC(O)CNC2CCN(c3ncnc4scc(-c5cccs5)c34)CC2)ccc1O` (stereo not drawn) [Example 25, ethyl 2-hydroxy-5-(2-hydroxy-3-(1-(5-(thiophen-2-yl)thieno[2,3-d]pyrimidin-4-yl)piperidin-4-ylamino)propoxy)benzoate], in assay [1], the EC50 was over 100 nM. For the same compound, in assay [2], the “selectivity [A x B]” value is given as 0 (A×B<10).
As to `Cc1cc(C)nc(N2CCC(NCC(O)COc3ccc(O)c(CO)c3)CC2)n1` (stereo not drawn) [Example 24, 4-(3-(1-(4,6-dimethylpyrimidin-2-yl)piperidin-4-ylamino)-2-hydroxypropoxy)-2-(hydroxymethyl)phenol], the EC50 in assay [1] lay within 1 to 10 nM. Also, in assay [2], the “selectivity [A x B]” value is given as “+++ (A×B>1000)”.
For `Cc1cc(C)nc(N2CCC(NCC(O)COc3ccc(O)cc3)CC2)n1` (stereo not drawn) [Example 8, 4-(3-(1-(4,6-dimethylpyrimidin-2-yl)piperidin-4-ylamino)-2-hydroxypropoxy)phenol], the EC50 in assay [1] lay within 11 to 100 nM. Also, the “selectivity [A x B]” value in assay [2] is on record as 0 (A×B<10).
For `CCOC(=O)c1cc(OCC(O)CNC2CCN(c3ncnc4scc(C)c34)CC2)ccc1O` (stereo not drawn) [Example 17, ethyl 2-hydroxy-5-(2-hydroxy-3-(1-(5-methylthieno[2,3-d]pyrimidin-4-yl)piperidin-4-ylamino)propoxy)benzoate], in assay [1], the EC50 was over 100 nM. Further, the “selectivity [A x B]” value in assay [2] was 0 (A×B<10).
Take `CN(CC(O)COc1ccc(O)cc1)C1CCN(c2ncnc3scc(-c4ccc(F)cc4)c23)CC1` (stereo not drawn) [Example 11, 4-(3-((1-(5-(4-fluorophenyl)thieno[2,3-d]pyrimidin-4-yl)piperidin-4-yl)(methyl)amino)-2-hydroxypropoxy)phenol]: in assay [1], the 50% effective concentration (EC50) was over 100 nM. Moreover, the “selectivity [A x B]” value in assay [2] is listed as 0 (A×B<10).
In the same order, the values of `OCc1cc(OCC(O)CNC2CCN(C3=NCNc4scc(-c5ccccc5)c43)CC2)ccc1O` (stereo not drawn) [Example 14, 4-(2-hydroxy-3-(1-(5-phenyl-1,2-dihydrothieno[2,3-d]pyrimidin-4-yl)piperidin-4-ylamino)propoxy)-2-(hydroxymethyl)phenol] are 0.01 to 0.99 nM and “+++ (A×B>1000)”.
For `Cc1nc(N2CCC(NCC(O)COc3ccc(O)c(CO)c3)CC2)c2ccsc2n1` (stereo not drawn) [Example 19, 4-(2-hydroxy-3-(1-(2-methylthieno[2,3-d]pyrimidin-4-yl)piperidin-4-ylamino)propoxy)-2-(hydroxymethyl)phenol], the 50% effective concentration (EC50) in assay [1] fell in the range of 1 to 10 nM. For the same compound, in assay [2], the “selectivity [A x B]” value is given as “+++ (A×B>1000)”.
For `Cc1nc(N2CCC(NCC(O)COc3cccc(CO)c3)CC2)c2ccsc2n1` (stereo not drawn) [Example 38, 1-(3-(hydroxymethyl)phenoxy)-3-(1-(2-methylthieno[2,3-d]pyrimidin-4-yl)piperidin-4-ylamino)propan-2-ol], the 50% effective concentration (EC50) in assay [1] was over 100 nM. In addition, in assay [2], the “selectivity [A x B]” value is listed as 0 (A×B<10).
For `Cc1csc2ncnc(N3CCC(NCC(O)COc4cccc(CO)c4)CC3)c12` (stereo not drawn) [Example 37, 1-(3-(hydroxymethyl)phenoxy)-3-(1-(5-methylthieno[2,3-d]pyrimidin-4-yl)piperidin-4-ylamino)propan-2-ol], in assay [1], the half-maximal effective concentration (EC50) lay in the range of 11 to 100 nM. For the same compound, in assay [2], the “selectivity [A x B]” value is reported as 0 (A×B<10).

The values are drawn from patent US8207174B2, “Aryloxypropanolamines, methods of preparation therof and use of aryloxypropanolamines as medicaments” (4SC AG, priority 2007, dated 2012).
